Assay [1] relates to antibodies in sera from SARS patients (sera 1a, 1b, 2, 6, 37, 62, London, SARS-yellow, SARS-green). In kind it is binding, human. Details: Binding of serum 6 to linear peptides of protein X1 of SARS-CoV Urbani / Binding of serum 37 to linear peptides of protein X1 of SARS-CoV Urbani / Binding of serum 6 to looped/cyclic peptide (PEPSCAN-ELISA) / Binding of serum 37 to looped/cyclic peptide (PEPSCAN-ELISA) / Binding of serum 37 to looped/cyclic peptides of protein X1 of SARS-CoV Urbani / Binding of serum 6 to linear peptides of protein X2 / Binding of serum 37 to linear peptides of protein X2 / Binding of serum 37 to looped/cyclic peptides of protein X2 of SARS-CoV Urbani / Binding of serum 6 to linear peptides of protein M of SARS-CoV Urbani / Binding of serum 37 to linear peptides of protein M of SARS-CoV Urbani / Binding of serum 6 to looped/cyclic peptides of protein M of SARS-CoV Urbani / Binding of serum 37 to looped/cyclic peptides of protein M of SARS-CoV Urbani / Binding of serum 6 to linear peptides of protein X3 of SARS-CoV Urbani / Binding of serum 37 to linear peptides of protein X3 of SARS-CoV Urbani / Binding of serum 37 to looped/cyclic peptides of protein X3 of SARS-CoV Urbani / Binding of serum 6 to linear peptides of protein X4 of SARS-CoV Urbani / Binding of serum 37 to linear peptides of protein X4 of SARS-CoV Urbani / Binding of serum 37 to looped/cyclic peptides of protein X4 of SARS-CoV Urbani / Binding of serum 6 to linear peptides of protein X5 of SARS-CoV Urbani / Binding of serum 37 to linear peptides of protein X5 of SARS-CoV Urbani / Binding of serum 37 to looped/cyclic peptides of protein X5 of SARS-CoV Urbani / Binding of serum 6 to linear peptides of protein N of SARS-CoV Urbani / Binding of serum 37 to linear peptides of protein N of SARS-CoV Urbani / Binding of serum 6 to linear peptide (PEPSCAN-ELISA) / Binding of serum 1a to looped/cyclic peptides of protein N of SARS-CoV Urbani / Binding of serum 1b to looped/cyclic peptides of protein N of SARS-CoV Urbani / Binding of serum 2 to looped/cyclic peptides of protein N of SARS-CoV Urbani / Binding of serum 6 to looped/cyclic peptides of protein N of SARS-CoV Urbani / Binding of serum 37 to looped/cyclic peptides of protein N of SARS-CoV Urbani / Binding of serum 62 to looped/cyclic peptides of protein N of SARS-CoV Urbani / Binding of serum London to looped/cyclic peptides of protein N of SARS-CoV Urbani / Binding of serum SARS-green to looped/cyclic peptides of protein N of SARS-CoV Urbani: unit not given here.

Assay [2] has as its system control sera (pooled serum of ten healthy LUMC hospital workers; commercial negative donor pooled serum from the Dutch bloodbank). It counts as binding, human. Set-up: Binding of Control serum LUMC to linear peptides / Binding of Control serum Blood-bank to linear peptides / Binding of Control serum LUMC to looped peptides / Binding of Control Serum Blood-Bank to Looped peptides / Binding of Control serum LUMC to linear peptides of the protein M of SARS-CoV Urbani / Binding of Control serum Blood-bank to linear peptides of the protein M of SARS-CoV Urbani / Binding of Control serum LUMC to looped peptides of the protein M of SARS-CoV Urbani / Binding of Control Serum Blood-Bank to Looped peptides of the protein M of SARS-CoV Urbani: unit not given here.

The subject of assay [3] is rabbit serum obtained by immunizing a rabbit with the SARS-CoV strain Frankfurt 1. In kind it is binding. Set-up: Binding of a rabbit serum to linear peptides / Binding of a rabbit serum to looped peptides / Rabbit serum linear peptides / Rabbit serum looped peptides / Binding of a rabbit serum to linear peptides of protein N of SARS-CoV Urbani (Rabbit serum linear peptides) / Binding of a rabbit serum to looped/cyclic peptides of protein N of SARS-CoV Urbani (Rabbit serum looped peptides): unit not given here.

Turning to KILVRYNTRGNTYST, in assay [1], the “Binding of serum 1a to linear peptides of protein X5 of SARS-CoV Urbani” value was determined as 0.7, the “Binding of serum 1a to looped/cyclic peptides of protein X5 of SARS-CoV Urbani” value stood at 0.5, the “Binding of serum 1b to linear peptides of protein X5 of SARS-CoV Urbani” value is listed as 0.5 and the “Binding of serum 1b to looped/cyclic peptides of protein X5 of SARS-CoV Urbani” value is reported as 0.3. Also, in assay [1], the “Binding of serum 2 to linear peptides of protein X5 of SARS-CoV Urbani” value came out at 0.7, the “Binding of serum 2 to looped/cyclic peptides of protein X5 of SARS-CoV Urbani” value is 0.5, the “Binding of serum 6 to linear peptides of protein X5 of SARS-CoV Urbani” value is reported as 0.7 and the “Binding of serum 6 to looped/cyclic peptides of protein X5 of SARS-CoV Urbani” value is on record as 0.5. In addition, in assay [1], the “Binding of serum 37 to linear peptides of protein X5 of SARS-CoV Urbani” value is 0.7, the “Binding of serum 37 to looped/cyclic peptides of protein X5 of SARS-CoV Urbani” value came out at 0.5, the “Binding of serum 62 to linear peptides of protein X5 of SARS-CoV Urbani” value was determined as 0.8 and the “Binding of serum 62 to looped/cyclic peptides of protein X5 of SARS-CoV Urbani” value is recorded as 0.7. In assay [1], the “Binding of serum London to linear peptides of protein X5 of SARS-CoV Urbani” value was 0.7, the “Binding of serum London to looped/cyclic peptides of protein X5 of SARS-CoV Urbani” value is 0.3, the “Binding of serum SARS-green to linear peptides of protein X5 of SARS-CoV Urbani” value stood at 0.5 and the “Binding of serum SARS-green to looped/cyclic peptides of protein X5 of SARS-CoV Urbani” value was 0.3. In assay [1], the “Binding of serum SARS-yellow to linear peptides of protein X5 of SARS-CoV Urbani” value came to 0.1 and the “Binding of serum SARS-yellow to looped/cyclic peptides of protein X5 of SARS-CoV Urbani” value worked out at 0.6. Moreover, in assay [2], the “Binding of Control Serum Blood-Bank to Looped peptides” value is recorded as 0.5, the “Binding of Control serum Blood-bank to linear peptides” value is reported as 0.8, the “Binding of Control serum LUMC to linear peptides” value worked out at 0.6 and the “Binding of Control serum LUMC to looped peptides” value worked out at 0.6. Besides, in assay [3], the “Rabbit serum linear peptides” value was determined as 0.7 and the “Rabbit serum looped peptides” value is 0.4.
As for KLFIRQEEVQQELYS, in assay [1], the “Binding of serum 1a to linear peptides of protein X4 of SARS-CoV Urbani” value is given as 0.7, the “Binding of serum 1a to looped/cyclic peptides of protein X4 of SARS-CoV Urbani” value stood at 0.7, the “Binding of serum 1b to linear peptides of protein X4 of SARS-CoV Urbani” value came out at 0.5 and the “Binding of serum 1b to looped/cyclic peptides of protein X4 of SARS-CoV Urbani” value worked out at 0.6. For the same sequence, in assay [1], the “Binding of serum 2 to linear peptides of protein X4 of SARS-CoV Urbani” value stood at 0.4, the “Binding of serum 2 to looped/cyclic peptides of protein X4 of SARS-CoV Urbani” value turned out to be 0.6, the “Binding of serum 6 to linear peptides of protein X4 of SARS-CoV Urbani” value came out at 0.5 and the “Binding of serum 6 to looped/cyclic peptides of protein X4 of SARS-CoV Urbani” value is listed as 0.4. Besides, in assay [1], the “Binding of serum 37 to linear peptides of protein X4 of SARS-CoV Urbani” value worked out at 0.7, the “Binding of serum 37 to looped/cyclic peptides of protein X4 of SARS-CoV Urbani” value amounted to 0.7, the “Binding of serum 62 to linear peptides of protein X4 of SARS-CoV Urbani” value is listed as 0.8 and the “Binding of serum 62 to looped/cyclic peptides of protein X4 of SARS-CoV Urbani” value was found to be 0.6. In assay [1], the “Binding of serum London to linear peptides of protein X4 of SARS-CoV Urbani” value came out at 0.7, the “Binding of serum London to looped/cyclic peptides of protein X4 of SARS-CoV Urbani” value was 0.3, the “Binding of serum SARS-green to linear peptides of protein X4 of SARS-CoV Urbani” value was 0.6 and the “Binding of serum SARS-green to looped/cyclic peptides of protein X4 of SARS-CoV Urbani” value was 0.8. For the same sequence, in assay [1], the “Binding of serum SARS-yellow to linear peptides of protein X4 of SARS-CoV Urbani” value is listed as 0.4 and the “Binding of serum SARS-yellow to looped/cyclic peptides of protein X4 of SARS-CoV Urbani” value is on record as 0.6. Besides, in assay [2], the “Binding of Control Serum Blood-Bank to Looped peptides” value is 0.8, the “Binding of Control serum Blood-bank to linear peptides” value is reported as 0.5, the “Binding of Control serum LUMC to linear peptides” value is given as 0.5 and the “Binding of Control serum LUMC to looped peptides” value was found to be 0.8. In assay [3], the “Rabbit serum linear peptides” value came out at 0.5 and the “Rabbit serum looped peptides” value turned out to be 0.5.
As to KLLQTLVLKMLHSSS, in assay [1], the “Binding of serum 1a to linear peptides of protein X2” value came out at 0.6, the “Binding of serum 1a to looped/cyclic peptides of protein X2 of SARS-CoV Urbani” value was 0.5, the “Binding of serum 1b to linear peptides of protein X2” value was determined as 0.6 and the “Binding of serum 1b to looped/cyclic peptides of protein X2 of SARS-CoV Urbani” value was found to be 0.5. For the same sequence, in assay [1], the “Binding of serum 2 to linear peptides of protein X2” value was 0.4, the “Binding of serum 2 to looped/cyclic peptides of protein X2 of SARS-CoV Urbani” value stood at 0.3, the “Binding of serum 6 to linear peptides of protein X2” value amounted to 0.3 and the “Binding of serum 6 to looped/cyclic peptides of protein X2 of SARS-CoV Urbani” value was determined as 0.5. For the same sequence, in assay [1], the “Binding of serum 37 to linear peptides of protein X2” value amounted to 0.5, the “Binding of serum 37 to looped/cyclic peptides of protein X2 of SARS-CoV Urbani” value stood at 0.4, the “Binding of serum 62 to linear peptides of protein X2” value was 0.6 and the “Binding of serum 62 to looped/cyclic peptides of protein X2 of SARS-CoV Urbani” value is on record as 0.6. In addition, in assay [1], the “Binding of serum London to linear peptides of protein X2” value is 0.4, the “Binding of serum London to looped/cyclic peptides of protein X2 of SARS-CoV Urbani” value came out at 0.4, the “Binding of serum SARS-green to linear peptides of protein X2” value was found to be 0.5 and the “Binding of serum SARS-green to looped/cyclic peptides of protein X2 of SARS-CoV Urbani” value came out at 0.3. Besides, in assay [1], the “Binding of serum SARS-yellow to linear peptides of protein X2” value came out at 0.4 and the “Binding of serum SARS-yellow to looped/cyclic peptides of protein X2 of SARS-CoV Urbani” value was determined as 0.4. For the same sequence, in assay [2], the “Binding of Control Serum Blood-Bank to Looped peptides” value is on record as 0.7, the “Binding of Control serum Blood-bank to linear peptides” value came out at 0.7, the “Binding of Control serum LUMC to linear peptides” value turned out to be 0.3 and the “Binding of Control serum LUMC to looped peptides” value stood at 0.6. In addition, in assay [3], the “Binding of a rabbit serum to linear peptides” value turned out to be 0.2 and the “Binding of a rabbit serum to looped peptides” value is 0.4.
Regarding KNPLLYDANYFVCWH, in assay [1], the “Binding of serum 1a to linear peptides of protein X1 of SARS-CoV Urbani” value is reported as 0.8, the “Binding of serum 1a to looped/cyclic peptide (PEPSCAN-ELISA)” value was 0.6, the “Binding of serum 1b to linear peptides of protein X1 of SARS-CoV Urbani” value was 0.5 and the “Binding of serum 1b to looped/cyclic peptide (PEPSCAN-ELISA)” value is given as 0.5. In assay [1], the “Binding of serum 2 to linear peptides of protein X1 of SARS-CoV Urbani” value is 0.5, the “Binding of serum 2 to looped/cyclic peptide (PEPSCAN-ELISA)” value stood at 0.4, the “Binding of serum 6 to linear peptides of protein X1 of SARS-CoV Urbani” value worked out at 0.4 and the “Binding of serum 6 to looped/cyclic peptide (PEPSCAN-ELISA)” value was determined as 0.4. Besides, in assay [1], the “Binding of serum 37 to linear peptides of protein X1 of SARS-CoV Urbani” value is recorded as 0.6, the “Binding of serum 37 to looped/cyclic peptide (PEPSCAN-ELISA)” value is 0.6, the “Binding of serum 62 to linear peptides of protein X1 of SARS-CoV Urbani” value is recorded as 0.5 and the “Binding of serum 62 to looped/cyclic peptide (PEPSCAN-ELISA)” value is 0.6. Moreover, in assay [1], the “Binding of serum London to linear peptides of protein X1 of SARS-CoV Urbani” value is reported as 0.3, the “Binding of serum London to looped/cyclic peptide (PEPSCAN-ELISA)” value is 0.2, the “Binding of serum SARS-green to linear peptides of protein X1 of SARS-CoV Urbani” value stood at 0.4 and the “Binding of serum SARS-green to looped/cyclic peptide (PEPSCAN-ELISA)” value was found to be 0.3. For the same sequence, in assay [1], the “Binding of serum SARS-yellow to linear peptides of protein X1 of SARS-CoV Urbani” value is given as 0.3 and the “Binding of serum SARS-yellow to looped/cyclic peptide (PEPSCAN-ELISA)” value is 0.4. Also, in assay [2], the “Binding of Control Serum Blood-Bank to Looped peptides” value is reported as 0.6, the “Binding of Control serum Blood-bank to linear peptides” value stood at 0.4, the “Binding of Control serum LUMC to linear peptides” value was 0.4 and the “Binding of Control serum LUMC to looped peptides” value is 0.7. Also, in assay [3], the “Binding of a rabbit serum to linear peptides” value is 0.1 and the “Binding of a rabbit serum to looped peptides” value worked out at 0.7.

The values are drawn from patent US20070128217A1 (priority 2003, published 2007).
